From patent US20170198006A1, “PRMT5 INHIBITORS AND USES THEREOF” (Epizyme, Inc., priority 2014, published 2017)

Legend:
PRMT5/MEP50 = target: T1, PRMT5/MEP50 (Homo sapiens, UniProt O14744); assay: PRMT5 Biochemical Assay (PRMT5/MEP50 enzyme assay on histone H4 peptide substrate, 3H-SAM Flashplate); conditions: PRMT5 biochemical assay; read-out: Biochemical IC50
T1 construct: Flag-PRMT5; made in house; host or cells: Spodoptera frugiperda (SF9), baculovirus
In short: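 Sf9-expressed Flag-PRMT5/6His-MEP50 preincubated with compound 30 min at 25 °C, then methylation of biotinylated H4 1-15 peptide started with ³H-SAM in 20 mM Bicine pH 7.6, 1 mM TCEP, 0.005% BSG, 0.002% Tween20.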

Z-138 cells = assay: Z-138 Proliferation Assay (Cell Titer Glo, 5 days); type: cell-based; conditions: Homo sapiens, 120 h
Excerpt: Z-138 Proliferation Assay
Z-138 suspension cells were purchased from ATCC (American Type Culture Collection, Manassas, Va.). RPMI/Glutamax medium, penicillin-streptomycin, heat inactivated fetal bovine serum were purchased from Life Technologies, Grand Island, N.Y., USA. V-bottom polypropylene 384-well plates were purchased from Greiner Bio-One, Monroe, N.C., USA. Cell culture 384-well white opaque plates were purchased from Perkin Elmer, Waltham, Mass., USA. Cell-Titer Glo® was purchased from Promega Corporation, Madison, Wis., USA. SpectraMax M5 plate reader was purchased from Molecular Devices LLC, Sunnyvale, Calif., USA.
Z-138 suspension cells were maintained in growth medium (RPMI 1640 supplemented with 10% v/v heat inactivated fetal bovine serum and cultured at 37° C. under 5% CO2. Under assay conditions, cells were incubated in assay medium (RPMI 1640 supplemented with 10% v/v heat inactivated fetal bovine serum and 100 units/mL penicillin-streptomycin) at 37° C. under 5% CO2.
For the assessment of the effect of compounds on the proliferation of the Z-138 cell line, exponentially growing cells were plated in 384-well white opaque plates at a density of 10,000 cells/ml in a final volume of 50 μl of assay medium. A compound source plate was prepared by performing triplicate nine-point 3-fold serial dilutions in DMSO, beginning at 10 mM (final top concentration of compound in the assay was 20 μM and the DMSO was 0.2%). A 100 nL aliquot from the compound stock plate was added to its respective well in the cell plate. […] After addition of compounds, assay plates were incubated for 5 days at 37° C., 5% CO2, relative humidity >90%.
Cell viability was measured by quantitation of ATP present in the cell cultures, adding 35 μl of Cell Titer Glo® reagent to the cell plates. Luminescence was read in the SpectraMax M5 microplate reader. The concentration of compound inhibiting cell viability by 50% was determined using a 4-parametric fit of the normalized dose response curves.

[1] = system: symmetric di-methyl arginine in Z-138 cells; assay: Z-138 Methylation Assay (In Cell Western for symmetric di-methyl arginine and DNA content); type: cell-based; conditions: Homo sapiens, read-out: ICW EC50
Excerpt: Z-138 suspension cells were purchased from ATCC (American Type Culture Collection, Manassas, Va.). RPMI/Glutamax medium, penicillin-streptomycin, heat inactivated fetal bovine serum, and D-PBS were purchased from Life Technologies, Grand Island, N.Y., USA. Odyssey blocking buffer, 800CW goat anti-rabbit IgG (H+L) antibody, and Licor Odyssey infrared scanner were purchased from Licor Biosciences, Lincoln, Nebr., USA. Symmetric di-methyl arginine antibody was purchased from EMD Millipore, Billerica, Mass., USA. 16% Paraformaldehyde was purchased from Electron Microscopy Sciences, Hatfield, Pa., USA.
Z-138 suspension cells were maintained in growth medium (RPMI 1640 supplemented with 10% v/v heat inactivated fetal bovine serum and 100 units/mL penicillin-streptomycin) and cultured at 37° C. under 5% CO2.
Cell Treatment, in Cell Western (ICW) for Detection of Symmetric Di-Methyl Arginine and DNA Content.
Z-138 cells were seeded in assay medium at a concentration of 50,000 cells per mL to a 384-well cell culture plate with 50 μL per well. Compound (100 nL) from 384 well source plates was added directly to 384 well cell plate. Plates were incubated at 37° C., 5% CO2 for 96 hours. After four days of incubation, 40 μL of cells from incubated plates were added to poly-D-lysine coated 384 well culture plates (BD Biosciences 356697). Plates were incubated at room temperature for 30 minutes then incubated at 37° C., 5% CO2 for 5 hours. After the incubation, 40 μL per well of 8% paraformaldehyde in PBS (16% paraformaldahyde was diluted to 8% in PBS) was added to each plate and incubated for 30 minutes. Plates were transferred to a Biotek 405 plate washer and washed 5 times with 100 μL per well of wash buffer (1×PBS with 0.1% Triton X-100 (v/v)). Next 30 μL per well of Odyssey blocking buffer were added to each plate and incubated 1 hour at room temperature. Blocking buffer was removed and 20 μL per well of primary antibody was added (symmetric di-methyl arginine diluted 1:100 in Odyssey buffer with 0.1% Tween 20 (v/v)) and plates were incubated overnight (16 hours) at 4° C. Plates were washed 5 times with 100 μL per well of wash buffer. Next 20 μL per well of secondary antibody was added (1:200 800CW goat anti-rabbit IgG (H+L) antibody, 1:1000 DRAQ5 (Biostatus limited) in Odyssey buffer with 0.1% Tween 20 (v/v)) and incubated for 1 hour at room temperature. The plates were washed 5 times with 100 μL per well wash buffer then 1 time with 100 μL per well of water. Plates were allowed to dry at room temperature then imaged on the Licor Odyssey machine which measures integrated intensity at 700 nm and 800 nm wavelengths. Both 700 and 800 channels were scanned.
First, the ratio for each well was determined by:
Each plate included fourteen control wells of DMSO only treatment (minimum inhibition) as well as fourteen control wells for maximum inhibition treated with 3 μM of a reference compound (Background wells). The average of the ratio values for each control type was calculated and used to determine the percent inhibition for each test well in the plate. Reference compound was serially diluted three-fold in DMSO for a total of nine test concentrations, beginning at 3 μM. Percent inhibition was determined and IC50 curves were generated using triplicate wells per concentration of compound.

T1 sequence (O14744 with tags, fused parts or gaps): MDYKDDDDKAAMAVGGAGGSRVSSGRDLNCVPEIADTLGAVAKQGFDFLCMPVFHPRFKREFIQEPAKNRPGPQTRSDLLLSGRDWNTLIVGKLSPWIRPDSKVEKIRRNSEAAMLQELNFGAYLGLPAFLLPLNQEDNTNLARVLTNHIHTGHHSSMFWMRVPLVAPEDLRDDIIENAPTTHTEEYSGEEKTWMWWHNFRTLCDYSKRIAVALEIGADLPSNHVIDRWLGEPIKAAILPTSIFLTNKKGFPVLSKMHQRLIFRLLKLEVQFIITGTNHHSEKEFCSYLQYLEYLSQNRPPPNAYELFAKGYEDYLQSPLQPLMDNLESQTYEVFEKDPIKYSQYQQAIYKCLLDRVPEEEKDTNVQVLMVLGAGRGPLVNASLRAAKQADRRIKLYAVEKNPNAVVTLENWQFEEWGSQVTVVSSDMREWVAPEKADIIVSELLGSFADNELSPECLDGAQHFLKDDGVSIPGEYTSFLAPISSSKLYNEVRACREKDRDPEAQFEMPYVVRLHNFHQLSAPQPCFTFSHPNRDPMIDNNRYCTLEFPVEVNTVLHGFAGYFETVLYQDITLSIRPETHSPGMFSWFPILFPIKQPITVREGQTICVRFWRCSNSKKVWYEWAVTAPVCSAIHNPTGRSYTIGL
T1 sequence (Q9BQA1 with tags, fused parts or gaps partner limits assumed): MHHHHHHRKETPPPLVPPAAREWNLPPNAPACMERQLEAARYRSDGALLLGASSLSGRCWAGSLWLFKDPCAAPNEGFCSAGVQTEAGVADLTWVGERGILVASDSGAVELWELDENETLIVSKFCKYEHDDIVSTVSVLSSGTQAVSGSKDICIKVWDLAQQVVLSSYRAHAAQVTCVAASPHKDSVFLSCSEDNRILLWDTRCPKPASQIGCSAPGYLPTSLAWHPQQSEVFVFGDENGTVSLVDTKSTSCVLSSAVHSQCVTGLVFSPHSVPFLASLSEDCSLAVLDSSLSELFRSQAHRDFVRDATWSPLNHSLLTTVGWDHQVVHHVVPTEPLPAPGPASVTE

| SMILES | IC50 (PRMT5/MEP50) [nM] | EC50 [1] [nM] | EC50 (Z-138 cells) [nM] |
| --- | --- | --- | --- |
| CN1CCC(NC2=NN(C)CC(C(=O)NC[C@H](O)CN3CCc4ccccc4C3)C2)C1 (stereo partly drawn) [1-12] | < 100 | 101 to 1000 | > 5000 |
| CN(C)c1cccc2c(S(=O)(=O)NC3CC(=O)N(c4ccccc4)C3)cccc12 (stereo not drawn) [Compound 1-4] | 101 to 1000 | 101 to 1000 | 1000 to 10000 |
| CN(C)c1cccc2c(S(=O)(=O)NC3CCN(Cc4ccccc4)C3)cccc12 (stereo not drawn) [Compound 1-5] | 101 to 1000 | 1000 to 10000 | > 20000 |
| Cc1cccc(Cn2ccnc2CN)c1 [Compound 1-13] | 1000 to 10000 | > 1000 | > 5000 |
| Cc1ccc(C(=O)CC2NC(N3CCN(c4ccccc4)CC3)=NC2=O)cc1 (stereo not drawn) [Compound 1-14] | 101 to 1000 | 1000 to 10000 | > 20000 |
| CN(C)c1cccc2c(S(=O)(=O)N[C@H]3CCN(Cc4ccccc4)C3)cccc12 [Compound 2-5, (S)—N-(1-benzylpyrrolidin-3-yl)-5-(dimethylamino)naphthalene-1-sulfonamide] | < 100 | 101 to 1000 | > 20000 |
| CS(=O)(=O)N1CCC(Nc2cncc(C(=O)NC[C@H](O)CN3Cc4ccccc4C3)c2)CC1 [Compound 2-11] | < 100 | 101 to 1000 | 10000 to 50000 |
| NCc1nccn1Cc1cccc(Cl)c1 [Compound 2-13] | 1000 to 10000 | > 1000 | > 5000 |
| CN(C)c1cccc2c(S(=O)(=O)N[C@H]3CC(=O)N(c4ccccc4)C3)cccc12 [Compound 3-4, (S)-5-(dimethylamino)-N-(5-oxo-1-phenylpyrrolidin-3-yl)naphthalene-1-sulfonamide] | < 100 | < 100 | 1000 to 10000 |
| CN(C)c1cccc2c(S(=O)(=O)NC3CN(Cc4ccccc4)C3)cccc12 [Compound 3-5, N-(1-benzylazetidin-3-yl)-5-(dimethylamino)naphthalene-1-sulfonamide] | < 100 | 101 to 1000 | 10000 to 50000 |
| CN(C)c1cccc2c(S(=O)(=O)NCCC(N)c3ccccc3)cccc12 (stereo not drawn) [Compound 3-7] | < 100 | 101 to 1000 | 10000 to 50000 |
| O=C(NC[C@H](O)CN1CCc2ccccc2C1)c1cc(NC2CCN(CC(F)(F)F)CC2)ncn1 [Compound 3-9] | < 100 | < 100 | 101 to 1000 |
| Cc1cn(Cc2ccccc2)c(CN)n1 [Compound 3-13] | 101 to 1000 | > 1000 | > 5000 |
| CC(=O)c1ccc(NC(=O)CC2NC(N3CCN(Cc4ccccc4)CC3)=NC2=O)cc1 (stereo not drawn) [Compound 3-14] | 1000 to 10000 | > 20000 | > 20000 |
| CC(C)(C)C(=O)N1CCN(c2nc(NC3COC3)cc(C(=O)NC[C@H](O)CN3CCc4ccccc4C3)n2)CC1 [Compound 4-9] | < 100 | < 100 | < 100 |
| O=C(NC[C@H](O)CN1Cc2ccccc2C1)c1cc(NC2CNC2)ncn1 [Compound 4-11] | 101 to 1000 | 101 to 1000 | > 1000 |
| CN(C)c1cccc2c(S(=O)(=O)NC3CC(=O)N(c4cccc(F)c4)C3)cccc12 (stereo not drawn) [Compound 6-4] | 101 to 1000 | 1000 to 10000 | – |

Further lines, with some results ahead:

| IC50 (PRMT5/MEP50) [nM] | EC50 [1] [nM] | SMILES | EC50 (Z-138 cells) [nM] |
| --- | --- | --- | --- |
| < 100 | < 100 | O=C(NCC(O)CN1CCc2ccccc2C1)c1ccc(OC2CCOC2)cc1 (stereo not drawn) [1-10] | 1000 to 10000 |
| 101 to 1000 | 101 to 1000 | O=C(CC1NC(N2CCN(c3ccccc3)CC2)=NC1=O)Nc1ccc(Cl)cc1 (stereo not drawn) [Compound 1-6] | > 20000 |
| 101 to 1000 | 1000 to 10000 | OC(COc1cccc(-c2ccc3ncsc3c2)c1)CN1CCc2ccccc2C1 (stereo not drawn) [Compound 1-9] | 10000 to 50000 |
| 101 to 1000 | 101 to 1000 | O=C1CC(NS(=O)(=O)c2cccc3ccccc23)CN1c1ccccc1 (stereo not drawn) [Compound 2-4] | 10000 to 50000 |
| < 100 | 101 to 1000 | CN(C)c1cccc2c(S(=O)(=O)NCCC(N)Cc3ccccc3)cccc12 (stereo not drawn) [Compound 2-7, N-(3-amino-4-phenylbutyl)-5-(dimethylamino)naphthalene-1-sulfonamide] | 1000 to 10000 |
| < 100 | < 100 | CC1CC(Nc2cccc(C(=O)NC[C@H](O)CN3CCc4ccccc4C3)c2)CC(C)O1 (stereo partly drawn) [Compound 2-9] | 101 to 1000 |
| 101 to 1000 | 1000 to 10000 | CN(C)c1cccc2c(S(=O)(=O)NCC3CCN(Cc4ccco4)CC3)cccc12 [Compound 3-3] | 10000 to 50000 |
| 101 to 1000 | 101 to 1000 | O=C(NC[C@H](O)CN1Cc2ccccc2C1)c1cc(NC2COC2)ncn1 [Compound 3-11] | 10000 to 50000 |
| 101 to 1000 | 101 to 1000 | Cc1ccccc1N1CC(NS(=O)(=O)c2cccc3c(N(C)C)cccc23)CC1=O (stereo not drawn) [Compound 4-4] | 10000 to 50000 |
| 101 to 1000 | 101 to 1000 | CN(C)c1cccc2c(S(=O)(=O)NC[C@H](N)Cc3ccccc3)cccc12 [Compound 4-7] | – |
| 101 to 1000 | 10000 to 50000 | O=S(=O)(NCC1CCN(Cc2ccco2)CC1)c1cccc2c(Cl)cccc12 [Compound 12-3, 5-chloro-N-((1-(furan-2-ylmethyl)piperidin-4-yl)methyl)naphthalene-1-sulfonamide] | – |
